From US10689394B2, “Thieno[2,3-b]pyridine derivative, quinoline derivative, and use thereof” (The University of Tokyo, priority 2016, dated 2020)

Test system: SOD1 G93A transgenic mice (ALS model mice)
Assay: ALS model mice, continuous intracerebroventricular administration (rotarod onset, survival, motor neuron count)
Format: in vivo, mouse
Description: Wild-type mice (C57BL/6) and SOD1 G93A transgenic mice (G1L/+ line, backcrossed to C57BL/6) were purchased from The Jackson Laboratory, and were then mated and/or bred. All assays were carried out using only male mice.
Using Brain infusion kit 3 (Alzet) and an osmotic pump (Model 2006, Alzet), the compound was continuously administered into the cerebral ventricle of the SOD1 G93A transgenic mice (average onset: 28.1+1.3-week-old (Nishitoh et al., Genes Dev 22, 1451-1464, 2008)), from the time at which the mice were 22 weeks old (0.15 μL/h, 6 weeks/pump). As a preparation stage, 50% DMSO/PBS or each compound was filled into the pump, and was then immersed in 0.9% NaCl, so that priming was carried out 37° C. for 60 hours or more. Upon installation of the pump, the mice were anesthetized by intraperitoneal administration of 0.01 μL/g xylazine (1 mg/ml, Sigma) and 0.007 μL/g Pentobarbital Sodium Salt (5.4 mg/ml, Nacalai). The head portion of each mouse was dehaired, and the mouse was then fixed on a stereotaxic instrument equipped with a manipulator (NARISHIGE). Thereafter, the skin was cut, and the skull was exposed. The coordinate of Bregma was set at 0, and the position that was 1.1 mm to the right, 0.5 mm backward, and 2.5 mm downward was set at the coordinate of the administered cerebral ventricle. The pump was arranged under the dorsal skin, a cannula was then fixed using an adhesive, and the skin on the head portion of the mouse was closed using the adhesive. The pump was exchanged with a new one every 6 weeks, until it became difficult to perform surgery due to the onset of the pathologic conditions of ALS. Upon the exchange of the pump, the mouse was anesthetized, using 4% Isoflurane (Wako Pure Chemical Industries, Ltd.) for introduction, and 2% Isoflurane for maintenance. The dorsal surface of the pump-inserted site was dehaired, and the skin was excised to remove the pump. The removed pump was exchanged with a new pump that had previously been filled with 50% DMSO/PBS or each compound. After the exchange of the pump, the excised skin was closed with Wound clip (Alzet).
From the week at which the mice became 25 weeks old, motor function was measured three times a week according to a rotarod test. ROTA-ROD (Muromachi Kikai Co., Ltd.) was set at a reached rotation speed of 40 rpm and an acceleration time of 180 seconds. The period of time required until the target mouse was fallen during 300 seconds at longest was recorded. An interval of 180 seconds was provided between two trials. Two measurements were carried out in each trial, and better results were determined to be the results of the day. An average value in a week was calculated. […]

Structure (SMILES): C=CCN(C(=O)c1sc2nc(-c3cccnc3)ccc2c1N)c1ccccc1 [Example 1, N-allyl-3-amino-N-phenyl-6-(3-pyridinyl)thieno[2,3-b]pyridine-2-carboxamide]
- Effects on model mice (SOD1 G93A transgenic mice): Significant effects
- number of motor neurons in spinal cord (Nissl staining) (SOD1 G93A transgenic mice, 31 weeks old, lumbar cord anterior horn, vs DMSO group, FIG. 11, 12): the number of motor neurons was significantly high
- period of time required until the onset of the pathologic conditions (Onset), rotarod test (male SOD1 G93A transgenic mice, 3 mM continuous i.c.v. by osmotic pump from 22 weeks old, vs DMSO, FIG. 10A): the onset was significantly delayed
- effect of extending the survival period (Survival) (male SOD1 G93A transgenic mice, 3 mM continuous i.c.v. by osmotic pump from 22 weeks old, vs DMSO, FIG. 10B): approximately 14%
